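Protocol summary: plate cells (96-well), add compound at 5 concentrations, incubate 48 h, interpolate endpoints linearly. Here, GI50 denotes the concentration required for 50% inhibition of growth. TGI marks complete inhibition of growth.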
Legend:
Assay in all cases: growth of human tumour cells (NCI), 48 h
[1] = test system: SNB-75 CNS
[2] = test system: KM12 colon
[3] = test system: OVCAR-8 ovarian
[4] = test system: OVCAR-5 ovarian
[5] = test system: SR leukemia
[6] = test system: SK-OV-3 ovarian
[7] = test system: NCI-H522 lung
[8] = test system: NCI-H460 lung
[9] = test system: A549 NSCLC
[10] = test system: CCRF-CEM leukemia

Row | SMILES | GI50 [1] [µM] | TGI [1] [µM] | GI50 [2] [µM] | TGI [2] [µM] | GI50 [3] [µM] | TGI [3] [µM] | GI50 [4] [µM] | TGI [4] [µM] | GI50 [5] [µM] | TGI [5] [µM] | GI50 [6] [µM] | TGI [6] [µM] | GI50 [7] [µM] | TGI [7] [µM] | GI50 [8] [µM] | TGI [8] [µM] | GI50 [9] [µM] | TGI [9] [µM] | TGI [10] [µM] | GI50 [10] [µM]
1 | S=c1ssc(Sc2ccccn2)c1Cl | 23.3 | 56.8 | 15.5 | 28.8 | 20.3 | 40.8 | 25.6 | 48.3 | 1.7 | 4.64 | 23.7 | 47.7 | 6.99 | 21.9 | 15.2 | 28.5 | 21 | 42.7 |  | 
2 | O=C(O)c1c[nH]cc1C(=O)O |  | > 100 |  | > 100 |  | > 100 |  | > 100 |  | > 100 |  | > 100 |  | > 100 |  | > 100 |  | > 100 | > 100 | 
3 | COc1cc(Oc2c(O)c(C)c(OC)c(C(C)=O)c2O)c(C(C)=O)c(O)c1C |  | > 100 |  | > 100 |  | > 100 |  | > 100 |  | > 100 |  | > 100 |  | 77.9 |  | > 100 |  | > 100 | > 100 | 
4 | COC(=O)C(=O)C(C(=O)C=C(C)C)C(=O)C(=O)Nc1cccc(C(C)=O)c1 (centres undefined) |  | > 100 |  | > 100 |  | > 100 |  | > 100 |  | > 100 |  | > 100 |  | > 100 |  | > 100 |  | > 100 | > 100 | 
5 | CCN1C(=O)N(CC)C2C1NN=c1s/c(=C3\C(=O)N(C)c4ccccc43)c(=O)n12 (centres undefined) | 0.397 | 20.3 | 0.647 | > 100 | 2.82 | > 100 | 3.3 | > 100 | 0.382 | > 100 | 6.03 | > 100 | 0.609 | 33 | 1.29 | > 100 | 1.83 | > 100 | > 100 | 1.37
6 | O=C1CC2C(=O)N(Cc3ccccc3)C1C(S(=O)(=O)c1ccccc1)C2S(=O)(=O)c1ccccc1 (centres undefined) |  | 21.2 |  | 29.7 |  | 5.19 |  | 31.9 |  | 10.5 |  | 31.5 |  | 1.38 |  | 34.9 |  | 33.2 | 3.46 | 
7 | C=C(C)[C@@H]1CC[C@@]2(C)[C@H]1[C@H]1CCC3[C@@]4(C)CC[C@H](O)C(C)(C)[C@@H]4CC[C@@]3(C)[C@]1(C)C[C@@H]2O (some centres undefined) |  | > 100 |  | > 100 |  | > 100 |  | > 100 |  | > 100 |  |  |  | > 100 |  | > 100 |  | > 100 | > 100 | 
8 | Cn1cc(-c2ccc(CNc3cc(-c4cnc5cc(OCCCN6CCCC6)ccn45)ncn3)cc2)cn1 | 1.79 | 7.78 | 1.86 | 3.68 | 1.81 | 3.61 | 2.04 | 4.16 | 2.17 | 7.12 | 23 | 43.3 | 18.6 | 37.8 | 1.77 | 3.37 | 1.73 | 3.49 | > 100 | 2.72
9 | C/C(=N\NC(N)=O)C(CN(C)C)C(c1ccccc1)c1c(O)c2ccccc2oc1=O (centres undefined) |  | > 100 |  | > 100 |  | > 100 |  | > 100 |  | > 100 |  |  |  | > 100 |  | > 100 |  | > 100 | > 100 | 
10 | O=C(Cc1ccccc1)N/N=C(\C1=Nc2ccc([N+](=O)[O-])cc2NC1O)C(O)c1ccc([N+](=O)[O-])cc1 (centres undefined) |  | > 100 |  |  |  | > 100 |  | > 100 |  | > 100 |  | > 100 |  | > 100 |  | > 100 |  | > 100 | > 100 | 
11 | O=C(Nc1cc(Cl)c(Cl)cc1Cl)C(=O)C(C(=O)c1ccc(Cl)c(Cl)c1)C1OC(=O)c2ccccc21 (centres undefined) |  |  |  | 33.6 |  | 28.5 |  | 23.6 |  | > 100 |  | > 100 |  | 23.3 |  | 10.8 |  | > 100 | 49.5 | 
12 | CN(C)c1ccc(C(N)=O)cn1 |  | > 100 |  | > 100 |  | > 100 |  | > 100 |  | > 100 |  |  |  | > 100 |  | > 100 |  | > 100 | > 100 | 
13 | CN(C)CCNC(=O)c1ccc(Cl)c2c(Nc3ccc(S(N)(=O)=O)cc3)c3ccccc3nc12 |  | 4.72 |  | 5.12 |  | 6.84 |  | 8.48 |  | > 100 |  | 10.1 |  | 1.94 |  | 7.28 |  | 11.9 |  | 
14 | CC(=O)c1cccc(NCn2nnc3ccccc32)c1 |  | > 100 |  | > 100 |  | > 100 |  |  |  | > 100 |  | > 100 |  | > 100 |  | > 100 |  | > 100 | > 100 | 
15 | Cc1ccc2c(c1)ncn2-c1ncnc2c1CC(C)c1ccccc1N2C (centres undefined) | 0.0892 | 18.1 | 0.106 | 14.6 | 0.381 | 22.9 |  |  | 0.0362 | 1.98 | 0.139 | 17.7 | 0.121 | 5.68 | 0.225 | 11.3 | 0.248 | 17.5 | 10.5 | 0.046

Reference: PubChem BioAssay (NCI)
